According to article PMC4365786 (Chemistry & biology, 2015):

Columns and labels:
[1] = system: HepG2 cells; test: Cell viability assay; assay type: cell-based; settings: CellTiter-Glo, 96 h
[2] = system: HCT116 cells; test: Cell viability assay; assay type: cell-based; settings: Homo sapiens, HCT-116, 96 h, read-out: IC50 for killing HCT116 cells
[3] = system: acetylated histones in HCT116 cells; test: Western blotting of histone acetylation after 1 h exposure; assay type: cell-based; settings: TSA 0.2 μM, other compounds 2 μM
[4] = system: histone acetylation (H3K18ac) in HCT116 cells; test: Drug washout, histone acetylation by Western blotting; assay type: cell-based; settings: 6 h pulse then washout, time counted from drug addition
[5] = system: MDA-MB-231 cells; test: Cell viability assay; assay type: cell-based; settings: read-out: IC50 viability MDA-MB-231, CellTiter-Glo, 96 h (Fig. 3C)
[6] = system: Sin3 complex; test: Inhibition of the Sin3 complex; settings: data not shown
[7] = bovine, serum
[8] = system: α-tubulin acetylation in HCT116 and A549 cells; test: Western blotting of α-tubulin acetylation; assay type: cell-based; settings: TSA 0.2 μM, UF010 2 μM, 1 h before lysis
[9] = system: HDACs in HCT116; assay type: cell-based; settings: HCT116 (Fig. 2C) and HepG2 cells (data not shown)
[10] = system: MDA-MB-231 cells; test: Cell cycle analysis by FACS; assay type: cell-based; settings: MDA-MB-231, 24 h exposure
[11] = molecular target: HDAC2 (Homo sapiens, UniProt Q92769); test: HDAC2 inhibition kinetics; assay type: biochemical; settings: purified HDAC2
[12] = system: MDA-MB-231 cells; test: Wound healing cell migration assay; assay type: cell-based; settings: MDA-MB-231 monolayer scratch; UF010 at 1 μM

Sequence of HDAC2 (Q92769 whole entry): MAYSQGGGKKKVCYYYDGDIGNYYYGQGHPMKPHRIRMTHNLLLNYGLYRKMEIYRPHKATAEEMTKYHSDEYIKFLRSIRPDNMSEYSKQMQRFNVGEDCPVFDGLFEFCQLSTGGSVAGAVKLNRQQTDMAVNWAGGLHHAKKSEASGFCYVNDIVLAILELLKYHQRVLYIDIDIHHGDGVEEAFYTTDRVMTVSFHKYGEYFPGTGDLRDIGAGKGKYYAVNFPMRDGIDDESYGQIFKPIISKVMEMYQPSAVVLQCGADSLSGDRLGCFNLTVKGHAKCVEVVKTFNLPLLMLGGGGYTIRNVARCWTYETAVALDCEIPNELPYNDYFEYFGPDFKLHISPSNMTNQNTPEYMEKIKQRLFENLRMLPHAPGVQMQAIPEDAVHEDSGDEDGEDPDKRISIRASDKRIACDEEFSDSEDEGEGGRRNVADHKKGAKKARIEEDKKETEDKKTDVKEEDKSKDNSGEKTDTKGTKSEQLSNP

For CCCCNNC(=O)c1ccc(N(C)C)cc1 [SR-3208], the “fold more potent than UF010 in eliciting cytotoxicity” value [1] was 3 fold.

With Nc1ccccc1NC(=O)c1ccc(CNC(=O)OCc2cccnc2)cc1 [MS-275, entinostat] the IC50 [2] was 2.1 µM, the “induction of histone acetylation” value [3] was “only slightly induced acetylation at several sites but failed to induce acetylation at most sites” and the “time up to which induced histone acetylation was maintained” value (shortened to “time up”) [4] was “at least 48 h”.

With CCCCNNC(=O)c1ccc(Br)cc1 [UF010] the “induction of histone acetylation” value [3] was “consistently induced the accumulation of acetylated histones at all sites”, the IC50 [5] was 29.1 µM and the “inhibition of the Sin3 complex” value [6] was “can inhibit”. For the same compound, the “half-life in cell culture medium” value [7] was 15.8 h, the “time up” value [4] was “up to 96 h” and the “effect on α-tubulin acetylation” value [8] was “had no effect”. The “fold more potent than MS-275 against HDACs in cells” value [9] was “about 5 fold”, the “effect on cell cycle progression” value [10] was “mainly blocked G1/S transition” and the “mechanism of HDAC2 inhibition vs. substrate” value [11] was “competitive inhibitor”. The “effect on cell migration” value [12] was “markedly slowed migration”.

With O=C(CCCCCCC(=O)Nc1ccccc1)NO [SAHA, vorinostat, reference compound] the “effect on cell cycle progression” value [10] was “inhibited G1/S progression at 1 μM but induced a strong G2/M block at 10 μM”.

In the case of CC(/C=C/C(=O)NO)=C\[C@@H](C)C(=O)c1ccc(N(C)C)cc1 [TSA, trichostatin A, reference compound], the “induction of histone acetylation” value [3] is reported as “strongly induced acetylation at some sites but weakly at other sites” and the “effect on α-tubulin acetylation” value [8] is reported as “dramatically increased”.

In the case of C/C=C1\NC(=O)[C@H]2CSSCC/C=C/[C@H](CC(=O)N[C@H](C(C)C)C(=O)N2)OC(=O)[C@H](C(C)C)NC1=O [Romi-depsin, romidepsin], the “time up” value [4] is reported as “up to 24 h”.
